Here are results for 13 compounds from ChEMBL document CHEMBL1126524, “Derivatives of quinuclidine as 5-HT3 receptor antagonists: influence of an additional carbonyl group on the recognition of chirality by the receptor” (Bioorg Med Chem Lett, 1993).

For one assay, the target named is Serotonin 3 (5-HT3) receptor (Rattus norvegicus) (UniProt P35563+Q9JJ16). The assay is described as follows: Compound was tested as a 5-hydroxytryptamine 3 receptor antagonist in the rat by assessment of the inhibition of the Bezold-Jarisch effect, when administered intravenously. Type of assay: functional.
On to `O=C1c2ccc3ccccc3c2C(=O)N1[C@H]1CN2CCC1CC2`, for which the ID50 stood at 18.6 mg/kg.

The next assay concerns the target T1, Serotonin 3 (5-HT3) receptor (Rattus norvegicus, UniProt P35563+Q9JJ16).
T1 sequence (P35563 whole entry): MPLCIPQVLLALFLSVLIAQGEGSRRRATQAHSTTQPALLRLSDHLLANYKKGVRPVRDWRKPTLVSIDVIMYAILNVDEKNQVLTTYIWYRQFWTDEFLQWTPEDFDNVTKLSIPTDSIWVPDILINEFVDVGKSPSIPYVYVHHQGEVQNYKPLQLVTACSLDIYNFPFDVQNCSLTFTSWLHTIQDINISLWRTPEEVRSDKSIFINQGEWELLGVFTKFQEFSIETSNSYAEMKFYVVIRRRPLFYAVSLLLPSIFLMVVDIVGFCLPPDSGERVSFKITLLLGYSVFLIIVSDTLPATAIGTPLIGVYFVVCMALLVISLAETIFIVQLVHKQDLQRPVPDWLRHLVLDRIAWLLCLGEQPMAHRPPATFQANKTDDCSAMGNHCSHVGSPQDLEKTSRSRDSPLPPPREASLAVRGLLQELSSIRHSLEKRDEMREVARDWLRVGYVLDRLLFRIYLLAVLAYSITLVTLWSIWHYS
T1 sequence (Q9JJ16 whole entry): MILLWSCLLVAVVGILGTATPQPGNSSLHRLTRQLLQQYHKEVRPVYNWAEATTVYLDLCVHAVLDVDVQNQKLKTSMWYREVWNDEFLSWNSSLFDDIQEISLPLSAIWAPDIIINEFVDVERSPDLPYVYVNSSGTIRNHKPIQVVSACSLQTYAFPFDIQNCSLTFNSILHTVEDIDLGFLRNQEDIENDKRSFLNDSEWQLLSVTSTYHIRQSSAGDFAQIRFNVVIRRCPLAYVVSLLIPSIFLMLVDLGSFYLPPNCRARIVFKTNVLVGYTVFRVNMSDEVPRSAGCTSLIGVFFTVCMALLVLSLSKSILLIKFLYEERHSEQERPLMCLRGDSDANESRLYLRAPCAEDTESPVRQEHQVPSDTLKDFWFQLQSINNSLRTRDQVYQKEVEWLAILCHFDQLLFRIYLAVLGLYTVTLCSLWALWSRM
As to the kind of experiment: Binding affinity at 5-hydroxytryptamine 3 receptor in rat entorhinal cortex by [3H]BRL-43694 displacement. It counts as tissue-based.
In turn, `COc1ccccc1C(=O)N[C@@H]1CN2CCC1CC2` returned a Ki of 23.4 nM.
Take `O=C(N[C@@H]1CN2CCC1CC2)c1cccc2ccccc12`: the Ki is 32 nM.
On the same count and under the same terms, the figure for `O=C1c2ccc3ccccc3c2C(=O)N1[C@@H]1CN2CCC1CC2` is 119 nM; for `COc1ccc2ccccc2c1C(=O)NC1CN2CCC1CC2` (centres undefined) it is 342 nM; for `O=C1c2ccc3ccccc3c2C(=O)N1[C@H]1CN2CCC1CC2` it is 6 nM.
On to `CCOc1ccccc1C(=O)N[C@H]1CN2CCC1CC2`, for which the Ki came out at 100 nM. This Ki is about 17-fold higher than that of the compound before.
Same read-out and setting: the figure for `COc1ccccc1C(=O)N[C@H]1CN2CCC1CC2` is 409 nM; for `CCOc1ccccc1C(=O)N[C@@H]1CN2CCC1CC2` it is 18.9 nM; for `CCCOc1ccccc1C(=O)N[C@H]1CN2CCC1CC2` it is 71.6 nM.
Same read-out and setting: the figure for `O=C(N[C@H]1CN2CCC1CC2)c1ccccc1` is 1890 nM; for `O=C(N[C@@H]1CN2CCC1CC2)c1ccccc1` it is 147 nM; for `CCCOc1ccccc1C(=O)N[C@@H]1CN2CCC1CC2` it is 11.2 nM.
Regarding `Nc1ccc2cccc3c2c1C(=O)N(C1CN2CCC1CC2)C3=O` (centres undefined), the affinity corresponds to a Ki of 0.15 nM. This Ki lies about 75-fold lower than the previous one.
